DBAASP
In brackets after ≈: the same amount, converted by molar mass.

What was measured:
Assay in all cases: ≥ marks a high value that may be exact or a test limit, other limits are often not marked, values filed in µg/mL are converted to µM
Aeromonas salmonicida = system: Aeromonas salmonicida
Vibrio anguillarum = system: Vibrio anguillarum
[1] = system: Acinetobacter baumannii ATCC BAA-747
[2] = system: Enterococcus faecium ATCC 700221
[3] = system: Escherichia coli ATCC 25922
[4] = system: Klebsiella pneumoniae ATCC 700603
[5] = system: Pseudomonas aeruginosa ATCC 27853
[6] = system: Salmonella enterica ATCC 6539
[7] = system: Staphylococcus aureus ATCC 43300
[8] = system: Pseudomonas aeruginosa 15159
[9] = system: Staphylococcus aureus 2844
[10] = system: Staphylococcus aureus ATCC 29213
[11] = system: Staphylococcus aureus FDA 486
[12] = system: Escherichia coli NCTC 10418
[13] = system: Staphylococcus aureus NCTC 12981
Candida albicans = system: Candida albicans
[14] = system: Staphylococcus aureus ATCC 49476
Staphylococcus aureus MR = system: Staphylococcus aureus MR

Structure (SMILES): CC(C)[C@H](NC(=O)[C@H](CCC(=O)O)NC(=O)[C@H](C)N)C(=O)N[C@@H](C)C(=O)N1CCC[C@H]1C(=O)N[C@@H](C)C(=O)N1CCC[C@H]1C(=O)N[C@@H](C)C(=O)N[C@@H](C)C(=O)N[C@@H](C)C(=O)N[C@@H](C)C(=O)N1CCC[C@H]1C(=O)N[C@@H](C)C(=O)N[C@@H](CCCCN)C(=O)N[C@@H](C)C(=O)N1CCC[C@H]1C(=O)N[C@@H](CCCCN)C(=O)N[C@@H](CCCCN)C(=O)N[C@@H](CCCCN)C(=O)N[C@@H](C)C(=O)N[C@@H](C)C(=O)N[C@@H](C)C(=O)N[C@@H](CCCCN)C(=O)N1CCC[C@H]1C(=O)N[C@@H](CCCCN)C(=O)N[C@@H](CCCCN)C(N)=O [AEVAPAPAAAAPAKAPKKKAAAKPKK]
- MIC (Aeromonas salmonicida): ≥ 413 µM
- MIC (Vibrio anguillarum): ≥ 413 µM

Structure (SMILES): NC(=O)[C@H](CCCN=C(N)N)NC(=O)[C@H](CS)NC(=O)[C@H](Cc1ccc(O)cc1)NC(=O)[C@H](Cc1c[nH]c2ccccc12)NC(=O)[C@H](CCCN=C(N)N)NC(=O)[C@@H](N)Cc1c[nH]c2ccccc12 [WRWYCR]
- MIC [1]: ≥ 132 µM
- MIC [2]: 8 µM (≈ 7.75 µg/mL)
- MIC [3]: 17 µM (≈ 16.5 µg/mL)
- MIC [4]: 66 µM (≈ 63.9 µg/mL)
- MIC [5]: 33 µM (≈ 31.9 µg/mL)
- MIC [6]: 8 µM (≈ 7.75 µg/mL)
- MIC [7]: 66 µM (≈ 63.9 µg/mL)

Structure (SMILES): CC[C@H](C)[C@H](NC(=O)[C@H](CCCN=C(N)N)NC(=O)[C@H](CCC(N)=O)NC(=O)[C@@H](NC(=O)[C@@H](NC(=O)[C@H](CCCN=C(N)N)NC(=O)[C@H](CCCCN)NC(=O)[C@H](Cc1ccccc1)NC(=O)[C@H](CCC(=O)O)NC(C)=O)[C@@H](C)CC)C(C)C)C(=O)N[C@@H](CCCCN)C(=O)N[C@@H](CC(=O)O)C(=O)N[C@@H](Cc1ccccc1)C(=O)N[C@@H](CC(C)C)C(=O)N[C@@H](CCCN=C(N)N)C(=O)N[C@@H](CC(N)=O)C(=O)N[C@@H](CC(C)C)C(=O)N[C@H](C(N)=O)C(C)C [EFKRIVQRIKDFLRNLV]
- MIC [8]: 10 µM (≈ 22.2 µg/mL)
- MIC [5]: 10 µM (≈ 22.2 µg/mL)
- MIC [9]: 5 µM (≈ 11.1 µg/mL)
- MIC [10]: 10 µM (≈ 22.2 µg/mL)
- MIC [11]: 5 µM (≈ 11.1 µg/mL)

Structure (SMILES): NCCCC[C@H](NC(=O)[C@H](Cc1c[nH]c2ccccc12)NC(=O)[C@H](CCCCN)NC(=O)[C@@H](N)Cc1c[nH]c2ccccc12)C(=O)N[C@@H](Cc1c[nH]c2ccccc12)C(N)=O [WKWKW]
- MIC [12]: ≥ 154 µM
- MIC [13]: ≥ 154 µM

Structure (SMILES): CC[C@H](C)[C@H](NC(=O)[C@H](C)NC(=O)[C@H](CCCCN)NC(=O)CNC(=O)[C@H](C)NC(=O)[C@H](CO)NC(=O)[C@H](Cc1ccccc1)NC(=O)[C@H](CC(C)C)NC(=O)CNC(=O)CNC(=O)[C@@H](NC(=O)[C@@H](NC(=O)[C@H](Cc1cnc[nH]1)NC(=O)[C@@H](N)Cc1cnc[nH]1)[C@@H](C)CC)[C@@H](C)CC)C(=O)N[C@@H](Cc1cnc[nH]1)C(=O)N[C@@H](CCCN=C(N)N)C(=O)N[C@@H](CC(C)C)C(=O)N[C@H](C(=O)N[C@@H](CCCN=C(N)N)C(=O)N[C@@H](CCCN=C(N)N)C(=O)N[C@@H](CCCN=C(N)N)C(=O)N[C@@H](CCCN=C(N)N)C(=O)N[C@@H](CCCN=C(N)N)C(=O)O)[C@@H](C)CC [HHIIGGLFSAGKAIHRLIRRRRR]
- MIC (Candida albicans): 47 µM (≈ 128 µg/mL)
- MIC [5]: 188 µM (≈ 512 µg/mL)
- MIC [14]: ≥ 188 µM
- MIC (Staphylococcus aureus MR): ≥ 188 µM
